In ChEMBL document CHEMBL1136381, “Discovery of novel low molecular weight inhibitors of IMPDH via virtual needle screening” (Bioorg Med Chem Lett, 2003) one finds IC50 data, which are given here for 29 molecules.

SMILES strings stand for the structures.

This test addresses Inosine-5'-monophosphate dehydrogenase (IMPDH) (Homo sapiens, UniProt P20839+P12268). The test is described as follows: Inhibitory activity against (IMPDH) inosine 5'-monophosphate dehydrogenase. In kind it is protein assay.
`CCOc1cc(NC(=O)C(=O)NC(C)(C)C)ccc1-c1cnco1` had an IC50 of 1.3 µM.

In turn, `CC(C)(C)NC(=O)C(=O)Nc1ccc(-c2cnco2)c(F)c1` registered an IC50 of 0.73 µM.

For `COc1cc(NC(=O)C(=O)NC(C)(C)C)ccc1-c1ocnc1C`, the IC50 came out at 0.43 µM.

In turn, `COc1cc(NC(=O)C(=O)NC(C)(C)C)ccc1-c1ocnc1Cc1ccccc1` had an IC50 of 35 µM.

As to `COc1cc(NC(=O)C(=O)NC(C)(C)C)ccc1-c1ccc[nH]1`, the IC50 was found to be 2.4 µM.

`COc1cc(N)ccc1-c1cnco1` displayed an IC50 of 19 µM.

Molecule `N#Cc1ccc2[nH]ccc2c1` came in with an IC50 of 99 µM.

On to `Cc1ncoc1-c1ccc(NC(=O)C(=O)NC(C)(C)C)cc1`, for which the IC50 is 14 µM.

Turning to `COc1ccc(NC(=O)C(=O)NC(C)(C)C)cc1-c1cnco1`, the IC50 came to 16 µM.

In turn, `Nc1ccnc2cc(Cl)ccc12` registered an IC50 of 168 µM.

On to `CC(C)(C)NC(=O)C(=O)Nc1ccc(-c2cnco2)c(C(F)(F)F)c1`, for which the IC50 came to 18 µM.

Consider `N#Cc1c[nH]c2ccccc12`, for which the IC50 is 32 µM.

For `COc1cc(NC(=O)C(=O)NC(C)(C)C)ccc1-c1cocn1`, the IC50 was 0.47 µM.

For the molecule `COc1cc(NC(=O)C(=O)NC(C)(C)C)ccc1-c1cnco1`, the IC50 came to 0.04 µM.

As for `Cc1cc(NC(=O)C(=O)NC(C)(C)C)ccc1-c1cnco1`, the IC50 came to 0.2 µM.

As to `COc1ccc2[nH]cc(C(=O)CSc3ccncc3)c2c1`, the IC50 is 32 µM.

`CC(=O)c1ccc(O)cc1C` came in with an IC50 of 620 µM.

Consider `CCc1cc(NC(=O)C(=O)NC(C)(C)C)ccc1-c1cnco1`, for which the IC50 worked out at 1.2 µM.

As to `COc1ccc(C#N)c2ccccc12`, the IC50 was found to be 31 µM.

`Oc1cccc2[nH]c3ccccc3c12` displayed an IC50 of 54 µM.

For `Cc1cc2c(cc1C)C(=O)C(C#N)CO2` (centres undefined), the half-inhibitory concentration (IC50) is 88 µM.

For the molecule `CC(C)(C)NC(=O)C(=O)Nc1ccc(-c2cnco2)c(Cl)c1`, the IC50 turned out to be 0.18 µM.

Turning to `COc1ccc(NC(=O)C(=O)NC(C)(C)C)cc1OC`, the half-inhibitory concentration (IC50) came out at 21 µM.

With `COc1cc(NC(=O)C(=O)NC(C)(C)C)ccc1-c1ccco1`, the IC50 came to 8.1 µM.

`CC(C)(C)NC(=O)C(=O)Nc1ccc(-c2cnco2)c(O)c1`: the IC50 was found to be 4.4 µM.

In turn, `CC(C)(C)NC(=O)C(=O)Nc1ccc(-c2cnco2)cc1` displayed an IC50 of 20 µM.

Regarding `CCCCc1ncoc1-c1ccc(NC(=O)C(=O)NC(C)(C)C)cc1OC`, the IC50 came out at 27 µM.

`COc1cc(NC(=O)C(=O)NC(C)(C)C)ccc1-c1cncs1` gave an IC50 of 0.91 µM.

In turn, `COc1cc(NC(=O)C(=O)NC(C)(C)C)ccc1-c1nc[nH]n1` returned an IC50 of 15 µM.

As usually defined, the IC50 is the midpoint of a concentration-inhibition curve. A higher IC50 goes with weaker potency.
